{"source": "patent US20070218486A1", "about": "“Immunoassays, Haptens, Immunogens and Antibodies for Anti-HIV Therapeutics” (Ark Diagnostics, Inc., priority 2006, published 2007)", "key": {"Anti-(H12)2": {"tested_on": "Anti-(H12)2", "assay": "Specificity of the immunoassay (cross-reactivity in human serum)", "assay_type": "binding, rabbit", "details": "10 μg/mL of crossreactant plus 5 μg/mL of tipranavir in human serum", "description": "Also antibody Anti-(H12)2 was used in this Example as part of an antibody reagent (“Anti-(H12)2 Antibody Reagent”) further comprising nicotinamide adenine dinucleotide, glucose-6-phosphate, sodium chloride, bulking agent, surfactant, and preservatives.\nAn immunoassay for tipranavir was conducted on the Cobas Mira Chemistry Analyzer (Roche). On the analyzer, 4 μL of sample plus 61 μL water were incubated for 300 sec with 150 μL of Anti-(H12)2 Antibody Reagent. […] After 25 sec incubation, enzyme activity was monitored by following the production of NADH spectrophotometrically at 340 nm for 50 sec.\nTesting was performed on the Cobas Mira analyzer. The percentage concentration above 5 μg/mL of tipranavir was calculated for each crossreactant."}, "[1]": {"details": "cited from earlier work"}, "CYP450 enzymes": {"tested_on": "CYP450 enzymes", "details": "in vitro; cited from earlier work"}, "[2]": {"details": "cited from earlier work", "remark": "listed apart in the source"}, "[3]": {"details": "rats; cited from earlier work"}, "primary hepatocyte [4]": {"tested_on": "primary hepatocyte", "details": "rat; cited from earlier work"}, "[5]": {"details": "dogs; cited from earlier work"}, "primary hepatocyte [6]": {"tested_on": "primary hepatocyte", "details": "human; cited from earlier work"}, "primary hepatocyte [7]": {"tested_on": "primary hepatocyte", "details": "dog; cited from earlier work"}, "[8]": {"biological_target": "mammalian DNA polymerases β (Homo sapiens, UniProt P06746)", "details": "cited from earlier work"}, "[9]": {"biological_target": "T1, mitochondrial DNA polymerase γ (Homo sapiens, UniProt P54098)", "T1 sequence (P54098 1-1239)": "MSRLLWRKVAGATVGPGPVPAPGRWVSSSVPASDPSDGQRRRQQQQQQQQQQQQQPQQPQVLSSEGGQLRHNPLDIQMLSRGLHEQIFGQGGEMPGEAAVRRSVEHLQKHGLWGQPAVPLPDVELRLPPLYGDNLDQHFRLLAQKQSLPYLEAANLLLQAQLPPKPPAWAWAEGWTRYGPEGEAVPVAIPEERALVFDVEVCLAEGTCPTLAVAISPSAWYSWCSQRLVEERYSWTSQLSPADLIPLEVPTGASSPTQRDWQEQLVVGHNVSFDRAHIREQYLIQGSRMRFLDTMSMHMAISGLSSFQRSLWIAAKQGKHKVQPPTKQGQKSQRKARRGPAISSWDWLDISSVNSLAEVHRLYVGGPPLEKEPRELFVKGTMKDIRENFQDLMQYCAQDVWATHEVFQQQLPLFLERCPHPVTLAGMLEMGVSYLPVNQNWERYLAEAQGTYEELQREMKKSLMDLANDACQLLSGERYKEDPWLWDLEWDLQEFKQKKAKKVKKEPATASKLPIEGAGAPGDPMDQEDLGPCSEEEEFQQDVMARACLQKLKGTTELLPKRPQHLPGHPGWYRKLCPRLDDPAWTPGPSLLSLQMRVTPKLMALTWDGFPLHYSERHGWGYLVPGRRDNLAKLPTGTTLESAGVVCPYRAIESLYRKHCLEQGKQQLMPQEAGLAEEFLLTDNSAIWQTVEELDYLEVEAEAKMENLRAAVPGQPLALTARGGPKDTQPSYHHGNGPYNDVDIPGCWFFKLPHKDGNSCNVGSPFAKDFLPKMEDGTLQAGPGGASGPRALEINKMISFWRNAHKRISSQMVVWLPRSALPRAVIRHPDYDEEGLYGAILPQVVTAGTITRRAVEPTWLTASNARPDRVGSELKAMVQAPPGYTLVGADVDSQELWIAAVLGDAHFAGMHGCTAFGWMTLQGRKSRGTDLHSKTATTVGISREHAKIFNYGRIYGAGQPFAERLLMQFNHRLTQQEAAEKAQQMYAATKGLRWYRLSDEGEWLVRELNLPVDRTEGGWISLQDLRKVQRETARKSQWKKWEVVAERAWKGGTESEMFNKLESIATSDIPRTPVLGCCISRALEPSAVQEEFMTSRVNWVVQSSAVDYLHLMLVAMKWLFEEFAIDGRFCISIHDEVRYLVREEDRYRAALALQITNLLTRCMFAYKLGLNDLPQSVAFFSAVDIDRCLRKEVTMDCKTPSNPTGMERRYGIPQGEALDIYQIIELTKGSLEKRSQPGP", "details": "cited from earlier work"}, "[10]": {"biological_target": "T2, mammalian DNA polymerases α (Homo sapiens, UniProt P09884)", "T2 sequence (P09884 1-1462)": "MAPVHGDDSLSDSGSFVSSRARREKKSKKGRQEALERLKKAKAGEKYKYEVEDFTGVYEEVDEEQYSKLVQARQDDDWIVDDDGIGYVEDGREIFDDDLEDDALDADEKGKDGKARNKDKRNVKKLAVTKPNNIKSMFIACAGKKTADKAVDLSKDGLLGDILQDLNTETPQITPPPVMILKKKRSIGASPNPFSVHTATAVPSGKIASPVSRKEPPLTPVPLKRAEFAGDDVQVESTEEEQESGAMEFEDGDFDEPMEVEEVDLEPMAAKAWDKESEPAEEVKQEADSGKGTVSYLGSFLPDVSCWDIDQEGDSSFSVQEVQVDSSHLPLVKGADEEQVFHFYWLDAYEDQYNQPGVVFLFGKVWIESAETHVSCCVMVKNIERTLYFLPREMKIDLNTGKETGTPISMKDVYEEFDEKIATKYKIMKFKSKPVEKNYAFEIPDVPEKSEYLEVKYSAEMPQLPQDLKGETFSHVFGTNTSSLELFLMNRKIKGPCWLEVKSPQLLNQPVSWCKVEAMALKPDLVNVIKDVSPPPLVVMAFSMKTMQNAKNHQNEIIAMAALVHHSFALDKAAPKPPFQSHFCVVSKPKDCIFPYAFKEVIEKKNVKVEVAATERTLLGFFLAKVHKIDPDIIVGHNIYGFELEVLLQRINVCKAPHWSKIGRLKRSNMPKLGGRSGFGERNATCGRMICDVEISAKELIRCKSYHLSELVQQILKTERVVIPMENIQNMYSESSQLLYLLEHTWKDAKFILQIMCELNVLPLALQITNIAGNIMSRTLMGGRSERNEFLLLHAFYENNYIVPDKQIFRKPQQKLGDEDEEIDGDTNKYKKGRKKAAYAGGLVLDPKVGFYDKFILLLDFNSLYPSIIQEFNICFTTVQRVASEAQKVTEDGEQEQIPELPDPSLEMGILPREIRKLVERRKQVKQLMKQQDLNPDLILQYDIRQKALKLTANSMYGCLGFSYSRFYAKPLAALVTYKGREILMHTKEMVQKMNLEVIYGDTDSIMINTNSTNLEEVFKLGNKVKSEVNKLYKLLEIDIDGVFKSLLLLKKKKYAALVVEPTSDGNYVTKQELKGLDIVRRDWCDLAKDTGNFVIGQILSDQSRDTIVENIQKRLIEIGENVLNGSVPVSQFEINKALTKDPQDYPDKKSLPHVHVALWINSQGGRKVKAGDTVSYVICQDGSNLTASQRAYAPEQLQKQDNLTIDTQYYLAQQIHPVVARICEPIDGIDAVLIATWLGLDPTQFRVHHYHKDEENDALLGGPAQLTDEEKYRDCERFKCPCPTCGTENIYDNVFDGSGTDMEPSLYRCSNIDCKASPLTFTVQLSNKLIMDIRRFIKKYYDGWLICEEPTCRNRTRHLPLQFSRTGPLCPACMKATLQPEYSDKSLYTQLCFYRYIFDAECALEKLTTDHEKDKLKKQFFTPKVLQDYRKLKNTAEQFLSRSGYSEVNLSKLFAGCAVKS", "details": "cited from earlier work"}}, "note": "Counter-ions that a name gives are not always drawn. Like-named read-outs stand apart in the source and are kept apart here."}
{"molecule": "CC(C)(C)NC(=O)[C@@H]1C[C@@H]2CCCC[C@@H]2CN1C[C@@H](O)[C@H](Cc1ccccc1)NC(=O)[C@H](CC(N)=O)NC(=O)c1ccc2ccccc2n1", "note": "[Saquinavir]", "values": [{"measurement": "Percent Increase in Apparent Tipranavir", "setting": "Anti-(H12)2", "result": 0, "unit": "%"}]}
{"molecule": "2′-deoxy-3′-thiacytidine [Lamivudine]", "values": [{"measurement": "Percent Increase in Apparent Tipranavir", "setting": "Anti-(H12)2", "result": 0, "unit": "%"}, {"measurement": "absolute bioavailability", "setting": "[1]; adults", "result": "approximately 82%"}, {"measurement": "absolute bioavailability", "setting": "[1]; children", "result": "~68", "unit": "%"}, {"measurement": "time to maximum serum concentrations after the dose", "setting": "[1]; oral administration", "result": "0.5 to 1.5", "unit": "h"}, {"measurement": "oral dose eliminated renally as unchanged drug", "setting": "[1]; oral dose", "result": "approximately 70%"}, {"measurement": "secretion into breast milk", "setting": "[1]; postpartum women", "result": "secreted into breast milk"}, {"measurement": "placental transfer", "setting": "[1]; pregnant women", "result": "diffuses freely across the placenta"}, {"measurement": "systemic exposure (AUC) when administered with food", "setting": "[1]; with food", "result": "not altered"}]}
{"molecule": "CC(C)c1nc(CN(C)C(=O)N[C@H](C(=O)N[C@@H](Cc2ccccc2)C[C@H](O)[C@H](Cc2ccccc2)NC(=O)OCc2cncs2)C(C)C)cs1", "note": "[Ritonavir]", "values": [{"measurement": "Percent Increase in Apparent Tipranavir", "setting": "Anti-(H12)2", "result": 0, "unit": "%"}]}
{"molecule": "Cc1c(O)cccc1C(=O)N[C@@H](CSc1ccccc1)[C@H](O)CN1C[C@H]2CCCC[C@H]2C[C@H]1C(=O)NC(C)(C)C", "note": "[Nelfinavir]", "values": [{"measurement": "Percent Increase in Apparent Tipranavir", "setting": "Anti-(H12)2", "result": 0, "unit": "%"}]}
{"molecule": "CC(C)OC(=O)OCOP(=O)(CO[C@H](C)Cn1cnc2c(N)ncnc21)OCOC(=O)OC(C)C", "note": "[tenofovir disoproxil]", "values": [{"measurement": "substrate of CYP450 enzymes", "setting": "CYP450 enzymes", "result": "neither tenofovir disoproxil nor tenofovir are substrates of CYP450 enzymes"}]}
{"molecule": "CC(C)OC(=O)OCOP(=O)(CO[C@H](C)Cn1cnc2c(N)ncnc21)OCOC(=O)OC(C)C", "note": "[Tenofovir disoproxil fumarate]", "values": [{"measurement": "administered dose recovered in urine", "setting": "[2]; multiple oral doses 300 mg once daily (under fed conditions), over 24 hours", "result": "32±10", "unit": "%"}]}
{"molecule": "O=C1Nc2ccc(Cl)cc2[C@@](C#CC2CC2)(C(F)(F)F)O1", "note": "[Efavirenz]", "values": [{"measurement": "Percent Increase in Apparent Tipranavir", "setting": "Anti-(H12)2", "result": 0, "unit": "%"}]}
{"molecule": "CCC[C@@]1(CCc2ccccc2)CC(O)=C([C@H](CC)c2cccc(NS(=O)(=O)c3ccc(C(F)(F)F)cn3)c2)C(=O)O1", "note": "[Tipranavir]", "values": [{"measurement": "plasma metabolic profile", "setting": "[3]", "result": "only the parent drug"}, {"measurement": "stability in primary hepatocyte incubations", "setting": "primary hepatocyte [4]", "result": "stable"}, {"measurement": "plasma metabolic profile", "setting": "[5]", "result": "only the parent drug"}, {"measurement": "stability in primary hepatocyte incubations", "setting": "primary hepatocyte [6]", "result": "stable"}, {"measurement": "stability in primary hepatocyte incubations", "setting": "primary hepatocyte [7]", "result": "stable"}]}
{"molecule": "CC(C)(C)NC(=O)[C@@H]1CN(Cc2cccnc2)CCN1C[C@@H](O)C[C@@H](Cc1ccccc1)C(=O)N[C@H]1c2ccccc2C[C@H]1O", "note": "[Indinavir]", "values": [{"measurement": "Percent Increase in Apparent Tipranavir", "setting": "Anti-(H12)2", "result": 0, "unit": "%"}]}
{"molecule": "Cc1cccc(C)c1OCC(=O)N[C@@H](Cc1ccccc1)[C@@H](O)C[C@H](Cc1ccccc1)NC(=O)[C@H](C(C)C)N1CCCNC1=O", "note": "[Lopinavir]", "values": [{"measurement": "Percent Increase in Apparent Tipranavir", "setting": "Anti-(H12)2", "result": 0, "unit": "%"}]}
{"molecule": "CC(Cn1cnc2c(N)ncnc21)OCP(=O)(O)OP(=O)(O)OP(=O)(O)O", "note": "(stereo in doubt) [Tenofovir diphosphate]", "values": [{"measurement": "inhibition of DNA polymerase β", "setting": "[8]", "result": "weak inhibitor"}, {"measurement": "inhibition of mitochondrial DNA polymerase γ", "setting": "[9]", "result": "weak inhibitor"}, {"measurement": "inhibition of DNA polymerase α", "setting": "[10]", "result": "weak inhibitor"}]}
{"molecule": "CC(C)CN(C[C@@H](O)[C@H](Cc1ccccc1)NC(=O)O[C@H]1CCOC1)S(=O)(=O)c1ccc(N)cc1", "note": "[Amprenavir]", "values": [{"measurement": "Percent Increase in Apparent Tipranavir", "setting": "Anti-(H12)2", "result": 0, "unit": "%"}]}
{"molecule": "Tenofovir", "values": [{"measurement": "dose recovered in the urine as unchanged tenofovir", "setting": "[2]; IV administration, within 72 hours of dosing", "result": "70-80%"}, {"measurement": "terminal elimination half-life", "setting": "[2]; single dose, oral administration of Tenofovir disoproxil fumarate", "result": "approximately 17 hours"}, {"measurement": "substrate of CYP450 enzymes", "setting": "CYP450 enzymes", "result": "neither tenofovir disoproxil nor tenofovir are substrates of CYP450 enzymes"}]}
